Data on 14 molecules can be found in PubChem BioAssay (NCI).

Among the test systems are U251 CNS; NCI-H522 lung; OVCAR-3 ovarian; CCRF-CEM leukemia; HOP-62 NSCLC; IGROV1 ovarian; NCI-H23 lung; ACHN renal; HL-60(TB) leukemia; RXF 393 renal.
Common to all, as to assay: inhibition of tumour cell growth, NCI panel, 48 h

Each structure is given as a SMILES string.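 All cell lines were grown in 96-well plates and treated with compound for 48 hours. The concentration for full growth arrest is given as TGI.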

On to `Cc1cc(Nc2ccc(NS(C)(=O)=O)cc2)c2c(ccc3nccc32)[nH]1`, for which the TGI is 29 µM in the assay with U251 CNS; 23.4 µM in the assay with NCI-H522 lung; 29.1 µM with OVCAR-3 ovarian; over 100 µM in the assay with CCRF-CEM leukemia; 44.5 µM in the assay on HOP-62 NSCLC; 86.3 µM in the assay on IGROV1 ovarian. The TGI with NCI-H23 lung is 49.6 µM; with ACHN renal, 60.8 µM.
As to `Cc1c(Cl)cccc1N=NC(=O)NNc1cccc(Cl)c1C`, the TGI was found to be 29.7 µM in the assay on U251 CNS; 39.8 µM in the assay with NCI-H522 lung; 31.4 µM in the assay with OVCAR-3 ovarian; 42.6 µM in the assay with CCRF-CEM leukemia; 38.1 µM in the assay on HL-60(TB) leukemia; 25.4 µM in the assay with HOP-62 NSCLC. Also, the TGI was found to be 19.6 µM in the assay on IGROV1 ovarian, 33.2 µM with NCI-H23 lung and 45.3 µM with ACHN renal.
As to `c1ccc(Nc2nn3c(CCCCCCCCc4nnc5sc(Nc6ccccc6)nn45)nnc3s2)cc1`, the TGI is over 100 µM with U251 CNS; 81.2 µM in the assay on NCI-H522 lung; over 100 µM with OVCAR-3 ovarian; 63.9 µM with CCRF-CEM leukemia; over 100 µM in the assay with HOP-62 NSCLC; over 100 µM with NCI-H23 lung. The TGI with RXF 393 renal and with ACHN renal was over 100 µM each time.
For `NC(=O)CC(N)C(=O)NC(Cc1ccccc1)C(=O)NC(Cc1ccccc1)NC(=O)C(Cc1c[nH]c2ccccc12)C(=O)O` (stereo not given), the TGI in the assay with U251 CNS, in the assay with NCI-H522 lung, in the assay on OVCAR-3 ovarian, with CCRF-CEM leukemia, in the assay on HOP-62 NSCLC and with IGROV1 ovarian was over 100 µM each time. Also, the TGI with NCI-H23 lung, in the assay on RXF 393 renal and in the assay on ACHN renal was over 100 µM in each case.
Take `O=C(C/C(=N/O)C(F)(F)F)c1cccs1`: the TGI in the assay with U251 CNS, with OVCAR-3 ovarian, with CCRF-CEM leukemia, with HL-60(TB) leukemia, with HOP-62 NSCLC and with IGROV1 ovarian was over 100 µM in each case. For the same molecule, the TGI in the assay with NCI-H23 lung, in the assay on RXF 393 renal and in the assay with ACHN renal was over 100 µM each time.
`CN(O)C(=O)CCCC(=O)NCC(C)(C)CNC(=O)CCCC(=O)N(C)O`: the TGI with U251 CNS, in the assay with OVCAR-3 ovarian, in the assay with CCRF-CEM leukemia, in the assay on HL-60(TB) leukemia, in the assay on HOP-62 NSCLC and in the assay with IGROV1 ovarian was over 100 µM throughout. Further, the TGI with NCI-H23 lung, in the assay on RXF 393 renal and in the assay with ACHN renal was over 100 µM throughout.
On to `C#C[C@@]1(O)CCCC2=CC3(CC[C@]21C)SCCS3`, for which the TGI in the assay with U251 CNS, in the assay with NCI-H522 lung, in the assay with OVCAR-3 ovarian, in the assay with HL-60(TB) leukemia, in the assay with HOP-62 NSCLC and in the assay on IGROV1 ovarian was over 100 µM throughout. Further, the TGI in the assay with NCI-H23 lung, with RXF 393 renal and in the assay on ACHN renal was over 100 µM in each case.
Take `O=C(O)/C(=C\c1ccc(O)cc1)c1cccc2ccccc12`: the TGI with U251 CNS, in the assay on NCI-H522 lung, in the assay with OVCAR-3 ovarian, with HOP-62 NSCLC, in the assay with IGROV1 ovarian and with NCI-H23 lung was over 100 µM in each case. Also, the TGI with RXF 393 renal and with ACHN renal was over 100 µM throughout.
As to `O=C1CC(=O)NC(=NN2C(=O)CSC2C(=O)c2ccco2)N1` (stereo not given), the TGI in the assay on U251 CNS, with NCI-H522 lung, with OVCAR-3 ovarian, in the assay with CCRF-CEM leukemia, with HOP-62 NSCLC and in the assay on IGROV1 ovarian was over 100 µM each time. Further, the TGI with NCI-H23 lung, in the assay with RXF 393 renal and with ACHN renal was over 100 µM in each case.
As to `O=C(c1cccs1)N1CCCN(C(=O)c2cccs2)C1=S`, the TGI is over 100 µM in the assay on U251 CNS; over 100 µM in the assay with OVCAR-3 ovarian; over 100 µM with CCRF-CEM leukemia; over 100 µM in the assay with HL-60(TB) leukemia; 66.2 µM in the assay with HOP-62 NSCLC; over 100 µM in the assay on IGROV1 ovarian. The TGI in the assay with NCI-H23 lung, with RXF 393 renal and in the assay with ACHN renal was over 100 µM each time.
Turning to `S=c1nc(N/N=C/c2cccs2)c2cn[nH]c2[nH]1`, the TGI was 77.6 µM with U251 CNS; 76.8 µM with NCI-H522 lung; 34.1 µM in the assay with OVCAR-3 ovarian; over 100 µM in the assay with HL-60(TB) leukemia; 69 µM in the assay on HOP-62 NSCLC; 75.1 µM in the assay on IGROV1 ovarian. For the same molecule, the TGI with NCI-H23 lung is 66.4 µM; in the assay on RXF 393 renal it was over 100 µM; with ACHN renal, over 100 µM.
For `COc1ccc(-c2ncn(C[Si](C)(C)C)c2-c2ccc(OC)cc2)cc1`, the TGI in the assay with U251 CNS was determined as 20.7 µM; in the assay on NCI-H522 lung, 16.2 µM; with HL-60(TB) leukemia, 4.57 µM; in the assay with HOP-62 NSCLC it was 30.7 µM; in the assay on IGROV1 ovarian, 23.1 µM; in the assay on NCI-H23 lung it was 18.5 µM. Moreover, the TGI in the assay with RXF 393 renal came to 21.1 µM; in the assay on ACHN renal, 20.5 µM.
As to `CC(C)C(=O)/C=C/S/C=C/C(=O)C(C)C`, the TGI stood at 70.6 µM with U251 CNS; 3.62 µM in the assay with NCI-H522 lung; 14.9 µM in the assay on OVCAR-3 ovarian; 86.9 µM with HOP-62 NSCLC; 45.8 µM in the assay on IGROV1 ovarian; 7.57 µM in the assay with NCI-H23 lung. Further, the TGI with RXF 393 renal worked out at 19.4 µM; in the assay on ACHN renal, 5.27 µM.
Take `C=CCOC(OCC=C)/C(Br)=C/C`: the TGI in the assay on U251 CNS, with OVCAR-3 ovarian, in the assay on CCRF-CEM leukemia, with HL-60(TB) leukemia, in the assay with HOP-62 NSCLC and with NCI-H23 lung was over 100 µM each time. The figures for the TGI in the assay on RXF 393 renal and with ACHN renal were over 100 µM and 45.3 µM, respectively.
